According to patent EP0371732A1, “Dopamine-beta-hydroxylase inhibitors” (SMITHKLINE BEECHAM CORPORATION, priority 1988, dated 1990):

Columns and labels:
[1] = tested on: spontaneously hypertensive rats; test: mean arterial blood pressure in spontaneously hypertensive rats, indwelling cannulae in the tail arteries; assay type: in vivo; conditions: 50 mg/kg intraperitoneally, compared to vehicle-treated controls
Experimental: Further, spontaneously hypertensive rats were treated with 1-(2-pyrrylmethyl)-1,3-dihydro-2H-imidazole-2-thione at a dose of 50 mg/kg intraperitoneally, and mean arterial blood pressure was monitored for 250 minutes using indwelling cannulae in the tail arteries. […] The maximal blood pressure reduction was approximately 35-40 mmHg.

DBH = target: T1, DBH (Homo sapiens, UniProt P09172); conditions: reported by Runti et al.; cited from earlier work
T1 sequence (P09172 1-617): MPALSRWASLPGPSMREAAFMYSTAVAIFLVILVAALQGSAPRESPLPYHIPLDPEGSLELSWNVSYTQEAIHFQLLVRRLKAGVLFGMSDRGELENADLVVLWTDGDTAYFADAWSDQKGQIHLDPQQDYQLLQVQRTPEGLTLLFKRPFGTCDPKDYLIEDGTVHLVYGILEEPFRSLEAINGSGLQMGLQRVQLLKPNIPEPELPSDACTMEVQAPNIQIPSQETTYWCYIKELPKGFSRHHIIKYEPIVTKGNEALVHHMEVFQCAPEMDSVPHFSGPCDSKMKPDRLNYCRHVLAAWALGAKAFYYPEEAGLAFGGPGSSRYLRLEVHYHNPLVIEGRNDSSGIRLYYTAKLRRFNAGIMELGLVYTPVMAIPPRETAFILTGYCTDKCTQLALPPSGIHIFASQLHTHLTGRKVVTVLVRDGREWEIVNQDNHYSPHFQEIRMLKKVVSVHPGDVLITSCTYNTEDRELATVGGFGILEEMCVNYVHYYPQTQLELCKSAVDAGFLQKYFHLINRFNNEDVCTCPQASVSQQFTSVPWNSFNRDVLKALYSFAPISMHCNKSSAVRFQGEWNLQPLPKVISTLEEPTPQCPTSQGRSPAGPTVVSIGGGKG

[2] = Teresawa et al., Japan. Cir. J. 35, 339 (1971); cited from earlier work

S=c1[nH]ccn1Cc1ccc[nH]1 [1-(2-Pyrrylmethyl)-1,3-dihydro-2H-imidazole-2-thione]
time to significant blood pressure reductions following treatment [1]: ≤ 30 min
maximal blood pressure reduction ([1]; monitored for 250 minutes, lowest blood pressures when monitoring was discontinued): 35-40 mmHg

phenylpicolinic acid
inhibitory activity relative to fusaric acid (DBH): twice the inhibitory activity of fusaric acid

CCCCc1ccc(C(=O)O)nc1 [Fusaric acid]
toxic effect [2]: hepatotoxic
